In general, Ki refers to a dissociation constant, usually derived from enzyme kinetics or from competition with a known ligand.

For this assay, the target named is T1, human cloned 5-HT6 receptors (Homo sapiens, UniProt P50406).
T1 construct: expressed in transfected cells; host or cells: HeLa cells
Kind of assay: 5-HT6 binding affinity, [3H]-LSD displacement. Here is the method: The affinity of test compounds for the serotonin 5-HT6 receptor is evaluated in the following manner. Cultured Hela cells expressing human cloned 5-HT6 receptors are harvested and centrifuged at low speed (1,000×g) for 10.0 min to remove the culture media. The harvested cells are suspended in half volume of fresh physiological phosphate buffered saline solution and recentrifuged at the same speed. This operation is repeated. The collected cells are then homogenized in ten volumes of 50 mM Tris.HCl (pH 7.4) and 0.5 mM EDTA. The homogenate is centrifuged at 40,000×g for 30.0 min and the precipitate is collected. The obtained pellet is resuspended in 10 volumes of Tris.HCl buffer and recentrifuged at the same speed. The final pellet is suspended in a small volume of Tris.HCl buffer and the tissue protein content is determined in aliquots of 10–25 μl volumes. Bovine Serum Albumin is used as the standard in the protein determination according to the method described in Lowry et al., J. Biol. Chem., 193:265 (1951). The volume of the suspended cell membranes is adjusted to give a tissue protein concentration of 1.0 mg/ml of suspension. The prepared membrane suspension (10 times concentrated) is aliquoted in 1.0 ml volumes and stored at −70° C. until used in subsequent binding experiments.
The reaction is allowed to proceed in the dark for 120 min at room temperature, at which time, the bound ligand-receptor complex is filtered off on a 96 well unifilter with a Packard Filtermate® 196 Harvester. The bound complex caught on the filter disk is allowed to air dry and the radioactivity is measured in a Packard TopCount® equipped with six photomultiplier detectors, after the addition of 40.0 μl Microscint®−20 scintillant to each shallow well. The unifilter plate is heat-sealed and counted in a PackardTopCount® with a tritium efficiency of 31.0%.
Binding in the presence of varying concentrations of test compound is expressed as a percentage of specific binding in the absence of test compound. The results are plotted as log % bound versus log concentration of test compound. […] A linear regression line of data points is plotted, from which the IC50 value is determined and the Ki value is determined based upon the following equation: Ki=IC50/(1+L/KD) where L is the concentration of the radioactive ligand used and KD is the dissociation constant of the ligand for the receptor, both expressed in nM.

Setting [1] is: membranes of Hela cells expressing human cloned 5-HT6 receptors, [3H]-LSD 3.0 nM, 120 min, room temperature, read-out: 5-HT6 Binding Ki.

Where two headings read alike, the source gives them in different places.

T1 sequence (P50406 whole entry): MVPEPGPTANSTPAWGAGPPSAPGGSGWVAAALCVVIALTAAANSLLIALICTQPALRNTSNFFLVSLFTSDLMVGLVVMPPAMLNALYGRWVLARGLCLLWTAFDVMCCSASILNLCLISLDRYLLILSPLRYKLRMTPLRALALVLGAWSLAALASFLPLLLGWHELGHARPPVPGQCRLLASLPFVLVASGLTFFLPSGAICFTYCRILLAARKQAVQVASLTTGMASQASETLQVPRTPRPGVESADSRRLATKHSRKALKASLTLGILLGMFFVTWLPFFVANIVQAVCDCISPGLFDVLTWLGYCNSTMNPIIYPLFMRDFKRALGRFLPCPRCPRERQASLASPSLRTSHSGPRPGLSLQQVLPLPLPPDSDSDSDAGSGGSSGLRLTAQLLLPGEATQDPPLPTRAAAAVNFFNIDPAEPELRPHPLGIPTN

Turning to “N,N-dimethyl-2-{[6-(3-bromophenyl)sulfonyl]-6H-thieno[2,3-b]pyrrol-4-yl}-ethylamine [Example 54]”, the Ki under setting [1] came to 1.7 ± 0.1 nM. On the same count and under the same terms, the same measure for `CN(C)CCc1cn(S(=O)(=O)c2ccccc2)c2ccsc12` [Example 70]: 1.2 ± 0.1 nM; for “2-{[6-(3-chloro-2-methylphenyl)sulfonyl]-6H-thieno[2,3-b]pyrrol-4-yl}ethylamine [Example 34]”: 13.3 ± 1.5 nM; for “N,N-dimethyl-2-{[6-(imidazo[2,1-b][1,3]thiazol-5-yl)sulfonyl]-6H-thieno[2,3-b]pyrrol-4-yl}-ethylamine [Example 49]”: 1.1 ± 0.1 nM. For `Cc1cccc(S(=O)(=O)n2cc(CCN(C)C)c3ccsc32)c1` [Example 59, N,N-dimethyl-2-{[6-(3-methylphenyl)sulfonyl]-6H-thieno[2,3-b]pyrrol-4-yl}ethylamine], the Ki under setting [1] is 1.6 nM. Still for that read-out and setting: to “N,N-dimethyl-2-{[6-(4,5-dichlorothien-2-yl)sulfonyl]-6H-thieno[2,3-b]pyrrol-4-yl]-ethyl]-amine [Example 57]” belongs 4.9 ± 0.3 nM; to `COc1ccc(S(=O)(=O)n2cc(CCN)c3ccsc32)cc1` [Example 33, 2-{[6-(4-methoxyphenyl)sulfonyl]-6H-thieno[2,3-b]pyrrol-4-yl}ethylamine], 24.7 ± 1.7 nM. On to `CN(C)CCc1cn(S(=O)(=O)c2ccccc2)c2sccc12` [Example 38, N,N-Dimethyl-2-[6-(phenylsulfonyl)-6H-thieno[2,3-b]pyrrol-4-yl]ethylamine], for which, under setting [1], the Ki is 1.2 ± 0.1 nM. “2-{[6-(2-chlorophenyl)sulfonyl]-6H-thieno[2,3-b]pyrrol-4-yl}ethylamine [Example 18]”: the Ki under setting [1] turned out to be 13 ± 1.5 nM. As to `NCCc1cn(S(=O)(=O)c2ccccc2C(F)(F)F)c2sccc12` [Example 32, 2-{{[6-(2-trifluoromethyl)phenyl]sulfonyl}-6H-thieno[2,3-b]pyrrol-4-yl}ethylamine], the Ki under setting [1] was determined as 21 ± 2.7 nM.

`COc1cccc(S(=O)(=O)n2cc(CCN(C)C)c3ccsc32)c1` [Example 44]: the Ki under setting [1] was 0.8 ± 0.1 nM. Take `COc1ccc(S(=O)(=O)n2cc(CCN(C)C)c3ccsc32)cc1` [Example 63, N,N-dimethyl-2-{[6-(4-methoxyphenyl)sulfonyl]-6H-thieno[2,3-b]pyrrol-4-yl}ethyl-amine]: the Ki under setting [1] amounted to 3.7 ± 0.1 nM. As to `NCCc1cn(S(=O)(=O)c2ccc(N)cc2)c2sccc12` [Example 35, 2-{[6-(4-aminophenyl)sulfonyl]-6H-thieno[2,3-b]pyrrol-4-yl}ethylamine], under setting [1], the Ki was found to be 2.4 ± 0.3 nM. As for `Cc1c(S(=O)(=O)n2cc(CCN(C)C)c3sccc32)sc2ccc(Cl)cc12` [Example 77], the Ki under setting [1] is 24.3 ± 1.5 nM. On to “2-{[6-(3-Chlorophenyl)sulfonyl]-6H-thieno[2,3-b]pyrrol-4-yl}ethylamine [Example 10]”, for which the Ki under setting [1] came to 4.3 ± 0.5 nM. Regarding `CN(C)CCc1cn(S(=O)(=O)c2cccc3ccccc23)c2sccc12` [Example 58, N,N-dimethyl-2-{[6-(1-naphthyl)sulfonyl]-6H-thieno[2,3-b]pyrrol-4-yl}ethylamine], the Ki under setting [1] came to 3.6 ± 0.1 nM. As to “N,N-dimethyl-2-{[6-(2-chlorophenyl)sulfonyl]-6H-thieno[2,3-b]pyrrol-4-yl}ethylamine [Example 48]”, the Ki under setting [1] came to 5.5 ± 0.5 nM. On the same count and under the same terms, to “N,N-dimethyl-2-{[6-(3-chloro-2-methylphenyl)sulfonyl]-6H-thieno[2,3-b]pyrrol-4-yl}-ethylamine [Example 64]” belongs 5.9 ± 1.4 nM. As to `CN(C)CCc1cn(S(=O)(=O)c2cccs2)c2sccc12` [Example 56, N,N-dimethyl-2-{(6-thien-2-ylsulfonyl)-6H-thieno[2,3-b]pyrrol-4-yl]-ethyllamine], under setting [1], the Ki was 2.4 ± 0.2 nM. As to `NCCc1cn(S(=O)(=O)c2ccccc2)c2sccc12` [Example 8, 2-[6-(phenylsulfonyl)-6H-thieno[2,3-b]pyrrol-4-yl]ethylamine], the Ki came to 7.5 ± 0.9 nM. In the case of `NCCc1cn(S(=O)(=O)c2ccc3ccccc3c2)c2ccsc12` [Example 66], the Ki under setting [1] stood at 9.2 ± 1 nM. Take `NCCc1cn(S(=O)(=O)c2ccccc2F)c2sccc12` [Example 16, 2-{[6-(2-fluorophenyl)sulfonyl]-6H-thieno[2,3-b]pyrrol-4-yl}ethylamine]: the Ki under setting [1] stood at 12 ± 1.2 nM. In the case of `CN(C)CCc1cn(S(=O)(=O)c2cccc(C(F)(F)F)c2)c2ccsc12` [Example 71], under setting [1], the Ki stood at 3 ± 0.2 nM.

For `NCCc1cn(S(=O)(=O)c2cccc3ccccc23)c2sccc12` [Example 28, 2-[6-(1-naphthylsulfonyl)-6H-thieno[2,3-b]pyrrol-4-yl]ethylamine], the Ki under setting [1] is 9.2 ± 0.8 nM.

On to “N,N-dimethyl-2-{[6-(2-chloroimidazo[1,2-a]pyridin-3-yl)sulfonyl]-6H-thieno[2,3-b]pyrrol-4-yl}ethylamine [Example 50]”, for which, under setting [1], the inhibition constant (Ki) turned out to be 2.1 ± 0.1 nM. Still for that read-out and setting: to `NCCc1cn(S(=O)(=O)c2ccc(Br)s2)c2sccc12` [Example 25, 2-{[6-(5-bromothien-2-yl)sulfonyl]-6H-thieno[2,3-b]pyrrol-4-yl}ethylamine] belongs 17.7 ± 3.2 nM. The same measure, in the same setting: the same measure for `CN(C)CCc1cn(S(=O)(=O)c2cccc(F)c2)c2sccc12` [Example 47, N,N-dimethyl-2-{[6-(3-fluorophenyl)sulfonyl]-6H-thieno[2,3-b]pyrrol-4-yl]-ethylamine]: 2.1 ± 0.2 nM.

Take “N,N-dimethyl-2-[6-(2-naphthylsufonyl)-6H-thieno[2,3-b]pyrrol-4-yl]ethylamine [Example 43]”: the Ki under setting [1] came out at 2.5 ± 0.2 nM. Consider “2-{[6-(2,6-dichloroimidazo[2,1-b][1,3]thiazol-5-yl)sulfonyl]-6H-thieno[2,3-b]pyrrol-4-yl}-ethylamine [Example 21]”, for which the Ki under setting [1] was 21.3 ± 1.5 nM. `CN(C)CCc1cn(S(=O)(=O)c2ccccc2C(F)(F)F)c2sccc12` [Example 62, N,N-dimethyl-2-{{[6-(2-trifluoromethyl)phenyl]sulfonyl}-6H-thieno[2,3-b]pyrrol-4-yl}ethylamine]: under setting [1], the Ki worked out at 4.7 ± 0.1 nM. Still for that read-out and setting: the same measure for “N,N-dimethyl-2-{[6-(2,6-dichloroimidazo[2,1-b]thiazol-5-yl)sulfonyl]-6H-thieno[2,3-b]pyrrol-4-yl}ethylamine [Example 51]”: 6.8 ± 0.6 nM. As for “N,N-dimethyl-2-{[6-(4-chlorophenyl)sulfonyl]-6H-thieno[2,3-b]pyrrol-4-yl}ethylamine [Example 52]”, the Ki under setting [1] turned out to be 2.6 ± 0.2 nM. Take `Cc1c(S(=O)(=O)n2cc(CCN)c3ccsc32)sc2ccc(Cl)cc12` [Example 15, 2-{[6-(5-chloro-3-methylbenzo[b]thien-2-yl)sulfonyl]-6H-thieno[2,3-b]pyrrol-4-yl}-ethylamine]: the Ki under setting [1] came out at 102 ± 5.7 nM. `COc1cccc(S(=O)(=O)n2cc(CCN(C)C)c3sccc32)c1` [Example 76]: under setting [1], the Ki stood at 1.3 ± 0.1 nM.

In the case of “N,N-dimethyl-2-{[6-(5-chlorothien-2-yl)sulfonyl]-6H-thieno[2,3-b]pyrrol-4-yl]-ethyl}-amine [Example 41]”, under setting [1], the Ki came out at 1.3 ± 0.1 nM. Consider “2-{[6-(4-chlorophenyl)sulfonyl]-6H-thieno[2,3-b]pyrrol-4-yl}ethylamine [Example 22]”, for which, under setting [1], the Ki stood at 13.3 ± 0.7 nM. Regarding `Cc1nc(S(=O)(=O)n2cc(CCN)c3ccsc32)cn1C` [Example 30, 2-{[6-(1,2-dimethyl-1H-imidazol-4-yl)sulfonyl]-6H-thieno[2,3-b]pyrrol-4-yl}ethylamine], the Ki under setting [1] amounted to 134 ± 10.3 nM. The same measure, in the same setting: the same measure for “N,N-dimethyl-2-{[6-(6-chloroimidazo[2,1-b][1,3]thiazol-5-yl)sulfonyl]-6H-thieno[2,3-b]pyrrol-4-yl}ethylamine [Example 42]”: 0.9 ± 0.1 nM; for `NCCc1cn(S(=O)(=O)c2cnc3sccn23)c2sccc12` [Example 19, 2-{[6-(imidazo[2,1-b][1,3]thiazol-5-yl)sulfonyl]-6H-thieno[2,3-b]pyrrol-4}ethylamine]: 3.4 ± 0.6 nM. Consider “N,N-dimethyl-2-{[6-(5-bromothien-2-yl)sulfonyl]-6H-thieno[2,3-b]pyrrol-4-ylethyl}-amine [Example 55]”, for which, under setting [1], the Ki amounted to 1.1 ± 0.1 nM. Turning to `NCCc1cn(S(=O)(=O)c2cccc(Cl)c2Cl)c2sccc12` [Example 23, 2-{[6-(2,3-dichlorophenyl)sulfonyl)-6H-thieno[2,3-b]pyrrol-4-yl}ethylamine], under setting [1], the Ki is 7.1 ± 0.2 nM.

As for `Cc1cccc(S(=O)(=O)n2cc(CCN)c3ccsc32)c1` [Example 29, 2-{[6-(3-methylphenyl)sulfonyl]-6H-thieno[2,3-b]pyrrol-4-yl}ethylamine], under setting [1], the Ki is 7.8 ± 0.4 nM.

On to `NCCc1cn(S(=O)(=O)c2cccc(F)c2)c2sccc12` [Example 17, 2-{[6-(3-fluorophenyl)sulfonyl]-6H-thieno[2,3-b]pyrrol-4-yl}ethylamine], for which the Ki under setting [1] worked out at 9.3 ± 0.7 nM.

The record behind these values is US7220756B2, “N-sulfonylheterocyclopyrrolyl-alkylamine compounds as 5-hydroxytryptamine-6 ligands” (Wyeth, priority 2003, dated 2007).
